Source: patent US6914045B2, “Glycopeptide antibiotics” (Wyeth Holdings Corporation, priority 2001, dated 2005)
Values after ≈ are worked out from the molar mass of the structure shown.

Legend:
Assay in all cases: in vitro antibacterial evaluation, MIC by broth dilution
Type in all cases: cell-based
Enterococcus sp. = conditions: broth dilution, 18 hours at 35° C.
Method in brief: (§1)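 Step 1: dilute antibiotic across 64-0.06 μg/mL in Muller-Hinton II […]. Step 2: inoculate at 5×10^5 CFU/mL.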

Escherichia coli = conditions: 18 hours at 35° C.
Method in brief: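 Test organisms, which included recent clinical isolates resistant to methicillin, penicillin and/or vancomycin, were inoculated at 5×10^5 CFU/mL into Muller-Hinton II […] containing antibiotic at 64-0.06 μg/mL. Minimum inhibitory concentrations were then read as the lowest level inhibiting growth.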

Staphylococcus sp. = conditions: broth dilution, 18 hours at 35° C.
Method in brief: as §1

Streptococcus sp. = conditions: broth dilution, 18 hours at 35° C.
Method in brief: as §1

MIC Enterococcus avium (GC 4558) (Enterococcus sp.; Enterococcus avium (GC 4558)): 128 mg/L (≈ 94.7 µM)
MIC Enterococcus faecalis (ATCC 29212) (Enterococcus sp.; Enterococcus faecalis (ATCC 29212)): >128 mg/L
MIC Enterococcus faecalis (GC 4553) (Enterococcus sp.; Enterococcus faecalis (GC 4553)): >128 mg/L
MIC Enterococcus faecalis (GC 4554) (Enterococcus sp.; Enterococcus faecalis (GC 4554)): >128 mg/L
MIC Enterococcus faecalis (GC 6189) (Enterococcus sp.; Enterococcus faecalis (GC 6189)): >128 mg/L
MIC Enterococcus faecium (GC 2243) (Enterococcus sp.; Enterococcus faecium (GC 2243)): >128 mg/L
MIC Enterococcus faecium (GC 4556) (Enterococcus sp.; Enterococcus faecium (GC 4556)): >128 mg/L
MIC Enterococcus faecium (GC 4557) (Enterococcus sp.; Enterococcus faecium (GC 4557)): 64 mg/L (≈ 47.4 µM)
MIC Enterococcus faecalis (ATCC 29212) (Enterococcus sp.; strain ATCC 29212): >128 mg/L
MIC Enterococcus faecalis (GC 2242) (Enterococcus sp.; strain GC 2242): 128 mg/L (≈ 94.7 µM)
MIC Enterococcus faecium (GC 2243) (Enterococcus sp.; strain GC 2243): >128 mg/L
MIC Enterococcus faecalis (GC 2691) (Enterococcus sp.; strain GC 2691): >128 mg/L
MIC Enterococcus faecalis (GC 3059) (Enterococcus sp.; strain GC 3059): >128 mg/L
MIC Enterococcus faecalis (GC 4552) (Enterococcus sp.; strain GC 4552): >128 mg/L
MIC Enterococcus faecalis (GC 4553) (Enterococcus sp.; strain GC 4553): >128 mg/L
MIC Enterococcus faecalis (GC 4554) (Enterococcus sp.; strain GC 4554): >128 mg/L
MIC Enterococcus faecium (GC 4556) (Enterococcus sp.; strain GC 4556): >128 mg/L
MIC Enterococcus faecium (GC 4557) (Enterococcus sp.; strain GC 4557): 64 mg/L (≈ 47.4 µM)
MIC Enterococcus avium (GC 4558) (Enterococcus sp.; strain GC 4558): 128 mg/L (≈ 94.7 µM)
MIC Enterococcus faecalis (GC 6189) (Enterococcus sp.; strain GC 6189): >128 mg/L
MIC Escherichia coli (ATCC 25922) (Escherichia coli; Escherichia coli (ATCC 25922)): 128 mg/L (≈ 94.7 µM)
MIC Escherichia coli (GC 4559) (Escherichia coli; Escherichia coli (GC 4559)): >128 mg/L
MIC Escherichia coli (GC 4560) (Escherichia coli; Escherichia coli (GC 4560)): 32 mg/L (≈ 23.7 µM)
MIC Coagulase Negative Staphylococcus (GC 4547) (Staphylococcus sp.): 64 mg/L (≈ 47.4 µM)
MIC Coagulase Negative Staphylococcus (GC 4548) (Staphylococcus sp.): 64 mg/L (≈ 47.4 µM)
MIC Coagulase Negative Staphylococcus (GC 4549) (Staphylococcus sp.): 32 mg/L (≈ 23.7 µM)
MIC Coagulase Negative Staphylococcus (GC 4551) (Staphylococcus sp.): 64 mg/L (≈ 47.4 µM)
MIC Staphylococcus aureus (ATCC 29213) (Staphylococcus sp.): 64 mg/L (≈ 47.4 µM)
MIC Staphylococcus aureus (GC 1131) (Staphylococcus sp.): 64 mg/L (≈ 47.4 µM)
MIC Staphylococcus aureus (GC 3051) (Staphylococcus sp.): 64 mg/L (≈ 47.4 µM)
MIC Staphylococcus aureus (GC 3053) (Staphylococcus sp.): 128 mg/L (≈ 94.7 µM)
MIC Staphylococcus aureus (GC 4541) (Staphylococcus sp.): 64 mg/L (≈ 47.4 µM)
MIC Staphylococcus aureus (GC 4542) (Staphylococcus sp.): 64 mg/L (≈ 47.4 µM)
MIC Staphylococcus aureus (GC 4544) (Staphylococcus sp.): 64 mg/L (≈ 47.4 µM)
MIC Staphylococcus aureus (GC 4545) (Staphylococcus sp.): 64 mg/L (≈ 47.4 µM)
MIC Staphylococcus aureus-SMITH (GC 4543) (Staphylococcus sp.): 64 mg/L (≈ 47.4 µM)
MIC Staphylococcus aureus (ATCC 29213) (Staphylococcus sp.; strain ATCC 29213): 64 mg/L (≈ 47.4 µM)
MIC Staphylococcus aureus (GC 1131) (Staphylococcus sp.; strain GC 1131): 64 mg/L (≈ 47.4 µM)
MIC Staphylococcus aureus (GC 3051) (Staphylococcus sp.; strain GC 3051): 64 mg/L (≈ 47.4 µM)
MIC Staphylococcus aureus (GC 3053) (Staphylococcus sp.; strain GC 3053): 128 mg/L (≈ 94.7 µM)
MIC Staphylococcus aureus (GC 4541) (Staphylococcus sp.; strain GC 4541): 64 mg/L (≈ 47.4 µM)
MIC Staphylococcus aureus (GC 4542) (Staphylococcus sp.; strain GC 4542): 64 mg/L (≈ 47.4 µM)
MIC Staphylococcus aureus (GC 4544) (Staphylococcus sp.; strain GC 4544): 64 mg/L (≈ 47.4 µM)
MIC Staphylococcus aureus (GC 4545) (Staphylococcus sp.; strain GC 4545): 64 mg/L (≈ 47.4 µM)
MIC Coagulase Negative Staphylococcus (GC 4547) (Staphylococcus sp.; strain GC 4547): 64 mg/L (≈ 47.4 µM)
MIC Coagulase Negative Staphylococcus (GC 4548) (Staphylococcus sp.; strain GC 4548): 64 mg/L (≈ 47.4 µM)
MIC Coagulase Negative Staphylococcus (GC 4549) (Staphylococcus sp.; strain GC 4549): 32 mg/L (≈ 23.7 µM)
MIC Coagulase Negative Staphylococcus (GC 4551) (Staphylococcus sp.; strain GC 4551): 64 mg/L (≈ 47.4 µM)
MIC Staphylococcus aureus-SMITH (GC 4543) (Staphylococcus sp.; strain SMITH GC 4543): 64 mg/L (≈ 47.4 µM)
MIC Streptococcus pneumoniae (ATCC 6301) (Streptococcus sp.; strain ATCC 6301): 16 mg/L (≈ 11.8 µM)
MIC Streptococcus pneumoniae (GC 1894) (Streptococcus sp.; strain GC 1894): 16 mg/L (≈ 11.8 µM)
MIC Streptococcus pyogenes (GC 4563) (Streptococcus sp.; strain GC 4563): 64 mg/L (≈ 47.4 µM)
MIC Streptococcus agalactiae (GC 4564) (Streptococcus sp.; strain GC 4564): 64 mg/L (≈ 47.4 µM)
MIC Streptococcus pneumoniae (GC 4565) (Streptococcus sp.; strain GC 4565): 16 mg/L (≈ 11.8 µM)
Compound: CC(C)C(=O)OCC1OC(OC2C(CO)OC(Oc3ccc(CC4NC(=O)C(Cc5ccccc5)NC(=O)CNC(=O)C(CO)NC(=O)C(C(O)C5CNC(=N)N5C5OC(CO)C(O)C(O)C5O)NC(=O)C(C(O)C5CNC(=N)N5)NC4=O)cc3)C(O)C2O)C(O)C(O)C1O (centres unmarked) [Example 283a, Cyclo[glycylphenylalanyl-O-[4-O-[6-O-(2-methylpropanoyl)-hexopyranosyl]hexopyranosyl]tyrosyl-3-(2-iminoimidazolidin-4-yl)seryl-3-(3-hexopyranosyl-2-iminoimidazolidin-4-yl)seryliseryl]]
MIC Staphylococcus haemolyticus (GC 4546) (Staphylococcus sp.): 64 mg/L (≈ 47.4 µM)
MIC Staphylococcus haemolyticus (GC 4546) (Staphylococcus sp.; strain GC 4546): 64 mg/L (≈ 47.4 µM)
